Results reported in patent US20240287138A1, “CYCLIC PEPTIDES FOR INHIBITING TNF RECEPTOR 1 ACTIVITY” (Merck Sharp & Dohme LLC, priority 2023, published 2024).
Read-outs that look alike come from different tables or passages of the source. Numbered stars: 1 amine (or outer) side, 2 acyl side, 3 side chain; on linkers, the order of the positions; unused ones are H or OH. Square brackets hold non-standard residues; d marks the D form. Peptide text beside a SMILES is read from it. Trp(βS-Me,7-OMe) = COc1cccc2c([C@H](C)[C@H](N)C(=O)O)c[nH]c12; Phe(4-SO2NH2) = N[C@@H](Cc1ccc(S(N)(=O)=O)cc1)C(=O)O; Phe(2-F,4-COOH) = N[C@@H](Cc1ccc(C(=O)O)cc1F)C(=O)O; Trp(7-CN) = N#Cc1cccc2c(C[C@H](N)C(=O)O)c[nH]c12; Trp(7-Cl) = N[C@@H](Cc1c[nH]c2c(Cl)cccc12)C(=O)O; Ala(pyrimidin-5-yl) = N[C@@H](Cc1cncnc1)C(=O)O; Phe(4-CONH2) = NC(=O)c1ccc(C[C@H](N)C(=O)O)cc1; Phe(4-COOH) = N[C@@H](Cc1ccc(C(=O)O)cc1)C(=O)O; 4Pal(3S-Me) = C[C@@H](c1ccncc1)[C@H](N)C(=O)O; Trp(7-aza) = N[C@@H](Cc1c[nH]c2ncccc12)C(=O)O; Phe(4-CH2NH2) = NCc1ccc(C[C@H](N)C(=O)O)cc1; Pip(5R-OH) = O=C(O)[C@@H]1CC[C@@H](O)CN1; X1 = O=C([C@@H]1CC[C@H](N[*:1])C1)[*:2]; Met(O2) = CS(=O)(=O)CC[C@H](N)C(=O)O; 4Pal = N[C@@H](Cc1ccncc1)C(=O)O; dHyp = O=C(O)[C@H]1C[C@H](O)CN1; Ahp(2) = CCCCC[C@H](N)C(=O)O; hSer = N[C@@H](CCO)C(=O)O; αMeS = C[C@](N)(CO)C(=O)O; Nle = CCCC[C@H](N)C(=O)O; Sar = CNCC(=O)O

What was measured:
[1] = biological target: T1, human TNFR1 extracellular domain (ECD) protein (Homo sapiens, UniProt P19438); experiment: SPR binding affinity to captured human TNFR1 ECD
T1 construct: HRV 3C protease cleavage site (C); 6His (C, cleaved yes); made in house; host or cells: Sf21 insect cells (baculovirus), secreted
T1 sequence (P19438 30-211): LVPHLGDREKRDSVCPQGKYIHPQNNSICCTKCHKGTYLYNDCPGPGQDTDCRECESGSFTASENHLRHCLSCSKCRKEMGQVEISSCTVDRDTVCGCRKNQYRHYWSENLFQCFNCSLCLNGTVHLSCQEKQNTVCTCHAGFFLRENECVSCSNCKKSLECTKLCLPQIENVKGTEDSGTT
Summary of the method: (§1)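 Biotinylated avi-tagged human TNFR1 or TNFR2 ECD, expressed in Sf21 insect cells, captured on streptavidin SPR chip; peptide analytes run in 10 mM HEPES pH 7.4, 150 mM NaCl, 3 mM EDTA, 0.05% P20, 2% DMSO. kon and koff measured, affinity KA calculated.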

human TNFR2 ECD protein = biological target: T2, human TNFR2 ECD protein (Homo sapiens, UniProt P20333); experiment: SPR off-target binding (selectivity) to human TNFR2 ECD
T2 construct: HRV 3C protease cleavage site (C); 6His (C, cleaved yes); made in house; host or cells: Sf21 insect cells (baculovirus), secreted
T2 sequence (P20333 23-257): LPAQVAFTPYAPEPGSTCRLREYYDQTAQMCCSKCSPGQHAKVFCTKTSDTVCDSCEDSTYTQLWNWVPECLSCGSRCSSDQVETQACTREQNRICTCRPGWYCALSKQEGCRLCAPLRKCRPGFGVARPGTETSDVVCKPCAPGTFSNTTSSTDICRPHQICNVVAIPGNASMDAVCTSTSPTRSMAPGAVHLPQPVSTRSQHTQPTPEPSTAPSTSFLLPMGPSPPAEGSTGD
Summary of the method: as §1

[2] = biological target: T3, human soluble TNFR1 (sTNFR1) (Homo sapiens, UniProt P19438); experiment: Human sTNFR1-peptide displacement assay (LanthaScreen Eu TR-FRET binding assay)
T3 construct: made in house; host or cells: Sf21 (baculovirus)
T3 sequence (P19438 with tags, fused parts or gaps): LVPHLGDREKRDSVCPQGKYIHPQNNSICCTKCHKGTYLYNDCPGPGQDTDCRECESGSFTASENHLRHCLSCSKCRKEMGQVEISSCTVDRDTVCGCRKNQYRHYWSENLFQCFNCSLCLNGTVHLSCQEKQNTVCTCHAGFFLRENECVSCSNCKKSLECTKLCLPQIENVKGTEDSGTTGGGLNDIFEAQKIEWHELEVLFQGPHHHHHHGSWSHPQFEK
Summary of the method: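 Readout is the 665/615 nm TR-FRET ratio (Eu anti-His donor, streptavidin-Alexa647 acceptor), normalized to DMSO and saturating displacer, fit by Morrison-based five-parameter logistic for Kd^app. His-tagged sTNFR1 (1-211) prebound to 100 nM biotinylated peptide SEQ ID NO.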

[3] = biotinylated human TNFR1 ECD on streptavidin chip, from kon and koff, read-out: SPR hTNFR1 KD
[4] = biotinylated human TNFR2 ECD on streptavidin chip, read-out: SPR hTNFR2 KD
[5] = displacement of biotinylated peptide SEQ ID NO. 1 from sTNFR1, 20 point titration, 5-parameter fit based on Morrison equation (tight binding), read-out: TR-FRET Kd^app

SMILES | Kd [1, 3] [nM] | Kd (human TNFR2 ECD protein; [4]) [nM] | Kd [2, 5] [nM] | Kd [1] [nM] | Kd (human TNFR2 ECD protein) [nM] | Kd [2] [nM]
CCCC[C@@H]1NC(=O)[C@@H]2CC[C@@H](C2)NC(=O)[C@H]([C@@H](C)c2c[nH]c3c(OC)cccc23)NC(=O)CN(C)C(=O)[C@H](Cc2ccc(CN)cc2)NC(=O)[C@H](Cc2ccc(C(N)=O)cc2)NC(=O)[C@](C)(CO)NC(=O)[C@H](Cc2c[nH]c3c(C#N)cccc23)NC(=O)[C@H](Cc2ccc(C(=O)O)cc2)NC(=O)[C@H](CC(N)=O)NC(=O)[C@H]2C[C@H](O)CN2C(=O)[C@H](Cc2c[nH]c3ccccc23)NC(=O)[C@@H]2CC[C@@H](O)CN2C(=O)[C@H](Cc2ccncc2)NC1=O [SEQ ID NO. 48] (cyclo([4Pal][Pip(5R-OH)]W[dHyp]N[Phe(4-COOH)][Trp(7-CN)][αMeS][Phe(4-CONH2)][Phe(4-CH2NH2)][Sar][Trp(βS-Me,7-OMe)][X1][Nle])) | 0.03 | > 1000 | 0.15 |  |  | 
CCCCC[C@@H]1NC(=O)[C@@H]2CC[C@@H](C2)NC(=O)[C@H]([C@@H](C)c2c[nH]c3c(OC)cccc23)NC(=O)CN(C)C(=O)[C@H](Cc2ccc(C(N)=O)cc2)NC(=O)[C@H](Cc2ccc(C(N)=O)cc2)NC(=O)[C@](C)(CO)NC(=O)[C@H](Cc2c[nH]c3c(C#N)cccc23)NC(=O)[C@H](Cc2ccc(C(=O)O)cc2)NC(=O)[C@H](CC(N)=O)NC(=O)[C@H]2C[C@H](O)CN2C(=O)[C@H](Cc2c[nH]c3ccccc23)NC(=O)[C@H](CCS(C)(=O)=O)NC(=O)[C@H]([C@@H](C)c2ccncc2)NC1=O [SEQ ID NO. 49] (cyclo([Ahp(2)][4Pal(3S-Me)][Met(O2)]W[dHyp]N[Phe(4-COOH)][Trp(7-CN)][αMeS][Phe(4-CONH2)][Phe(4-CONH2)][Sar][Trp(βS-Me,7-OMe)][X1])) |  |  |  | 0.08 | > 1000 | 0.2
CCCCC[C@@H]1NC(=O)[C@@H]2CC[C@@H](C2)NC(=O)[C@H]([C@@H](C)c2c[nH]c3c(OC)cccc23)NC(=O)CN(C)C(=O)[C@H](Cc2ccc(C(N)=O)cc2)NC(=O)[C@H](Cc2ccc(C(N)=O)cc2)NC(=O)[C@](C)(CO)NC(=O)[C@H](Cc2c[nH]c3c(C#N)cccc23)NC(=O)[C@H](Cc2ccc(C(=O)O)cc2)NC(=O)[C@H](CC(N)=O)NC(=O)[C@H]2C[C@H](O)CN2C(=O)[C@H](Cc2c[nH]c3ccccc23)NC(=O)[C@H](CCO)NC(=O)[C@H]([C@@H](C)c2ccncc2)NC1=O [SEQ ID NO. 50] (cyclo([Ahp(2)][4Pal(3S-Me)][hSer]W[dHyp]N[Phe(4-COOH)][Trp(7-CN)][αMeS][Phe(4-CONH2)][Phe(4-CONH2)][Sar][Trp(βS-Me,7-OMe)][X1])) |  |  |  | 0.04 | > 1000 | 0.2
CCCC[C@@H]1NC(=O)[C@@H]2CC[C@@H](C2)NC(=O)[C@H]([C@@H](C)c2c[nH]c3c(OC)cccc23)NC(=O)CN(C)C(=O)[C@H](Cc2ccc(C(=O)O)cc2F)NC(=O)[C@H](Cc2ccc(S(N)(=O)=O)cc2)NC(=O)[C@](C)(CO)NC(=O)[C@H](Cc2c[nH]c3c(C#N)cccc23)NC(=O)[C@H](Cc2ccc(C(=O)O)cc2F)NC(=O)[C@H](CC(N)=O)NC(=O)[C@H]2C[C@H](O)CN2C(=O)[C@H](Cc2c[nH]c3ncccc23)NC(=O)[C@@H]2CC[C@@H](O)CN2C(=O)[C@H](Cc2cncnc2)NC1=O [SEQ ID NO. 51] (cyclo(N[Phe(2-F,4-COOH)][Trp(7-CN)][αMeS][Phe(4-SO2NH2)][Phe(2-F,4-COOH)][Sar][Trp(βS-Me,7-OMe)][X1][Nle][Ala(pyrimidin-5-yl)][Pip(5R-OH)][Trp(7-aza)][dHyp])) | 0.08 | > 1000 | 0.05 |  |  | 
CCCC[C@@H]1NC(=O)[C@@H]2CC[C@@H](C2)NC(=O)[C@H]([C@@H](C)c2c[nH]c3c(OC)cccc23)NC(=O)CN(C)C(=O)[C@H](Cc2ccc(C(=O)O)cc2)NC(=O)[C@H](Cc2ccc(C(N)=O)cc2)NC(=O)[C@](C)(CO)NC(=O)[C@H](Cc2c[nH]c3c(Cl)cccc23)NC(=O)[C@H](Cc2ccncc2)NC(=O)[C@H](CC(N)=O)NC(=O)[C@H]2C[C@H](O)CN2C(=O)[C@H](Cc2c[nH]c3ccccc23)NC(=O)[C@@H]2CC[C@@H](O)CN2C(=O)[C@H](Cc2ccncc2)NC1=O [SEQ ID NO. 53] (cyclo([4Pal][Trp(7-Cl)][αMeS][Phe(4-CONH2)][Phe(4-COOH)][Sar][Trp(βS-Me,7-OMe)][X1][Nle][4Pal][Pip(5R-OH)]W[dHyp]N)) | 0.02 | > 1000 | 0.09 |  |  | 
